2 compounds from patent publication US11466010B2, “Toll-like receptor 8 (TLR8) specific antagonists and methods of making and uses thereof” (The Regents of the University of Colorado, a body corporate, priority 2017, dated 2022) can be followed below.

Each structure is given as a SMILES string.

Assay [1] deals with TNF-α production in PBMCs from an AOSD patient. Briefly: TNF-α level in PBMCs harvested from an AOSD patient. It counts as cell-based, human. Here is the method: But there is a lack of appropriate rodent models because TLR8 is not functional in either mice or rats. Therefore, the TLR8 inhibitors of this disclosure were tested in human specimens harvested from patients with osteoarthritis (OA), rheumatoid arthritis (RA), and adult onset-Still's disease (AOSD). It is well established that TNF-α and IL-1β are key cytokines in the process of chronic joint inflammation in cartilage. Therefore, synovial cells were isolated from synovial tissue of patients who underwent joint replacement surgery due to severe OA. Previous studies have indicated these pathological tissues express both TLR7 and TLR8 with elevated production of various cytokines, contributing to extensive articular destruction and functional decline.

Assay [2] addresses T1, human TLR8 transgene (Homo sapiens, UniProt Q9NR97).
T1 construct: expressed in transfected cells; host or cells: primary splenocytes from hTLR8tg/TLR7-KO mice
T1 sequence (Q9NR97 27-1041): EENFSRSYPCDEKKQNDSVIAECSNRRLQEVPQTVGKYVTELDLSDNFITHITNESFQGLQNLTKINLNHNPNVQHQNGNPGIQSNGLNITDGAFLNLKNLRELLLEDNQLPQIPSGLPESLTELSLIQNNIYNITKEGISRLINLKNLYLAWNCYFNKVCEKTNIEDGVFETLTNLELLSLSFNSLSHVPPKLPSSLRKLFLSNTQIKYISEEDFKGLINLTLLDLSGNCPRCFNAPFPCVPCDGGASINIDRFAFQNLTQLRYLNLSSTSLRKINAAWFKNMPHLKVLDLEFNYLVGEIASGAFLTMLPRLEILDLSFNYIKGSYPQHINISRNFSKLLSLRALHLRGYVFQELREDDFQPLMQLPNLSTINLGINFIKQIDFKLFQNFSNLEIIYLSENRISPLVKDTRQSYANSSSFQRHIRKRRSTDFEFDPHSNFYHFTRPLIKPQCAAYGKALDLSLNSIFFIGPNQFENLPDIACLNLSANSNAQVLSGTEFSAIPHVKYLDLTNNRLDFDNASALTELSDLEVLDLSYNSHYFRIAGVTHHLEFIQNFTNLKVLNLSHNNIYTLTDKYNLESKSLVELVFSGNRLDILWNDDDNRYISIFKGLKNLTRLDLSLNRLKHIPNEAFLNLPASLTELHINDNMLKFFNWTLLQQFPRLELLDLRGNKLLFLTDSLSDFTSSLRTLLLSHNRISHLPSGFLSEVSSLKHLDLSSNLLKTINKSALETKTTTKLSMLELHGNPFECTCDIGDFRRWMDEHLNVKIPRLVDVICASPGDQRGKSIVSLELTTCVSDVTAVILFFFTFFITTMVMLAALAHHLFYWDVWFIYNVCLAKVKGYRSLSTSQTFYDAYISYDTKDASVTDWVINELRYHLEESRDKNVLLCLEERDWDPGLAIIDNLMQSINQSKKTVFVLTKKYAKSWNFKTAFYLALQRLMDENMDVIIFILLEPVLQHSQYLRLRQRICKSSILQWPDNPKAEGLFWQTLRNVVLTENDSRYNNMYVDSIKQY
Briefly: IL-12p40 production in splenocytes from hTLR8tg/TLR7-KO mice, TLR8 agonist ORN8L. The assay is classed as cell-based, mouse. The conditions noted are these: ORN8L 100 ug/mL, 48 hours. As to the method: Activity on primary mouse splenocytes: To assess TLR8 and TLR9 activity, spleens were isolated from TLR7 knock-out mice harboring a human TLR8 transgene (hTLR8tg/TLR7-KO). Splenocytes were prepared by dissociation through a cell strainer and removal of red blood cells with lysis buffer. Splenocytes were incubated with a dilution series of compounds and a constant amount of a TLR8 agonist (RNA oligonucleotide ORN8L) or a TLR9 agonist (CpG-containing phosphorothioate DNA oligonucleotide 1018). After 48 hours, culture supernatants were collected and analyzed for IL-12p40 production. Curves represent activity from a single spleen.

In assay [3] the target is T2, TLR8 (Homo sapiens, UniProt Q9NR97).
T2 construct: hTLR8, residues 27-827; made in house
T2 sequence (Q9NR97 27-827): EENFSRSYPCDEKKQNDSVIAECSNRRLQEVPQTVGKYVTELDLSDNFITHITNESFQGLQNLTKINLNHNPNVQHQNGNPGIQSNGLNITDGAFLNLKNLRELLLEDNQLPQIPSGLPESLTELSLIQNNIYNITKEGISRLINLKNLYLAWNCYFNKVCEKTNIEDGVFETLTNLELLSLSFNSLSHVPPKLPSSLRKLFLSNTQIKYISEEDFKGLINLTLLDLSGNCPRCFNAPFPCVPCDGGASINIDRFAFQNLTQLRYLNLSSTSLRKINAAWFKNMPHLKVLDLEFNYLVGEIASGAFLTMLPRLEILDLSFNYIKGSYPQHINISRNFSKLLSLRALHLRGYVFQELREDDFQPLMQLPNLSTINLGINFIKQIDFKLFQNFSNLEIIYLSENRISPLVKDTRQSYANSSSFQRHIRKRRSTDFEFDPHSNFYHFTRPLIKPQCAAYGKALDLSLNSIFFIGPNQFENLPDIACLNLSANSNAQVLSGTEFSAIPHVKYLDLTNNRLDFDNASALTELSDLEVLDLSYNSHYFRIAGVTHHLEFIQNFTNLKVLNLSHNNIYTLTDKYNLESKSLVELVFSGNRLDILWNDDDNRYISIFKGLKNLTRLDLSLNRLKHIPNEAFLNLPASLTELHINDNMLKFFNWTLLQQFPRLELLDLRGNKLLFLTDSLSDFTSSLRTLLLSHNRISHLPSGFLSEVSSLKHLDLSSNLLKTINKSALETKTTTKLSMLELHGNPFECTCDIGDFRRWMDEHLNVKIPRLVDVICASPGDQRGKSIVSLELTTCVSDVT
Briefly: Gel filtration chromatography of TLR8 dimerization. It counts as binding. To be noted: diluted TLR8, dose-dependent. As to the method: Gel filtration chromatography with diluted TLR8 proteins, in which TLR8 exists as a monomer, was conducted to determine the dimerization state of TLR8 in the absence and presence of different ligands (FIGS. 10A and 10B).
On the technique in general: Size exclusion chromatography separates by hydrodynamic size, large species first.

Turning to `COc1ccc2c(-c3ccc(O)c(C)c3)ccnc2c1` [Compound 11a, 2-Methyl-4-(7-methoxyl-4-quinolinyl)-phenol], the “TNF-α level in PBMCs from an AOSD patient” value in assay [1] is listed as “dose-dependent suppression”. Also, in assay [2], the “IL-12p40 production as a monitor of TLR8 signaling” value was “inhibition”.
With `Cc1cc(-c2ccnc3cc(O)ccc23)ccc1O` [Compound 11b, 2-Methyl-4-(7-hydroxyl-4-quinolinyl)-phenol], in assay [2], the “IL-12p40 production as a monitor of TLR8 signaling” value is “inhibition”. Besides, the “retention volume of TLR8 (dimer stabilization in solution)” value in assay [3] was “smaller retention volume”.
